For assay [1], the target named is T1, FKBP51 variant G64S (Homo sapiens, UniProt Q13451, G64S).
T1 construct: made in house; host or cells: E. coli BL21 (DE3)
T1 sequence (Q13451 1-140 G64S): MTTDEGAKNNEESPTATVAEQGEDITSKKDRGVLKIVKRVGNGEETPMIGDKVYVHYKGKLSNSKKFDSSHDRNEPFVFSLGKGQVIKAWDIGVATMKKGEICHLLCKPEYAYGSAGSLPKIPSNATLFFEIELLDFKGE
Kind of assay: Competitive fluorescence polarization assay, FKBP51 G64S. Conditions: 10-40 nM FKBP51 G64S; 1 nM FK [431]-TA tracer; 30 min room temperature; fitted as KI in competitive binding model; read-out: Kd-value (ligand binding constant, competitive fluorescence polarization). An excerpt: (§1) All ligands and tracers used for fluorescence polarization assays had purities of more than 95%. The following ligands and tracers were used for fluorescence polarization and FACS screening experiments: •SAFit-FL tracer (1): Fluorescein conjugated analog of the iFit ligand class. •Mcyc-TA tracer (2): TAMRA conjugated macrocyclic ligand (5). •FK [431]-TA tracer (3): TAMRA conjugated FK [431] ligand (6). •SAFit1 ligand (4): analog of the iFit ligand class. •macrocyclic ligand (5):macrocyclic analog of the SAFit class ligands. •FK [431] ligand (6):bicyclic analog of the immunosuppressive drug FK506
(§2) In order to rule out artifacts introduced by the fluorophore of the tracers, competitive fluorescence polarization assays were carried out. Therefore, a serial dilution of an FK [431] ligand (6), SAFit1 (4), or a macrocyclic ligand 5) (Supplementary Figure S8) in assay buffer was placed in a 384-well assay plate. To the compounds, a mixture of the respective protein (20 nM WT, 10–40 nM G64S or 80–100 nM D68Y) and 1 nM of the FK [431]-TA in assay buffer was added. After incubating for 30 min at room temperature, the fluorescence polarization was measured. […]

Assay [2] addresses T2, FKBP51 variant D68Y (Homo sapiens, UniProt Q13451, D68Y).
T2 construct: made in house; host or cells: E. coli BL21 (DE3)
T2 sequence (Q13451 1-140 D68Y): T1 sequence (Q13451 1-140 G64S) with S64G, D68Y
Kind of assay: Competitive fluorescence polarization assay, FKBP51 D68Y. The settings on record: 80-100 nM FKBP51 D68Y; 1 nM FK [431]-TA tracer; 30 min room temperature; fitted as KI in competitive binding model; read-out: Kd-value (ligand binding constant, competitive fluorescence polarization).
From the text: as §1, §2

Assay [3] addresses T3, FKBP51 WT (Homo sapiens, UniProt Q13451).
T3 construct: made in house; host or cells: E. coli BL21 (DE3)
T3 sequence (Q13451 1-140): T1 sequence (Q13451 1-140 G64S) with S64G
As to the kind of experiment: Competitive fluorescence polarization assay, FKBP51 WT. The settings on record: 20 nM FKBP51 WT; 1 nM FK [431]-TA tracer; 30 min room temperature; fitted as KI in competitive binding model; read-out: Kd-value (ligand binding constant, competitive fluorescence polarization).
From the text: as §1, §2
A general note: Polarisation of emitted light reports the rotation of a fluorescent probe.

Structures are written as SMILES. Where a chain is given by its changes, count along the chain named.

In the case of `COc1ccc(CC[C@@H](OC(=O)[C@@H]2CCCCN2C(=O)[C@H](c2cc(OC)c(OC)c(OC)c2)C2CCCCC2)c2cccc(OCC(=O)O)c2)cc1OC` [SAFit1], the Kd (usually the equilibrium constant for the complex coming apart) in assay [1] worked out at 0.5 ± 0.2 nM; in assay [2], 0.2 ± 0.5 nM; in assay [3], 4.8 ± 0.4 nM.

(Values after PMC9676650, “Binding pocket stabilization by high-throughput screening of yeast display libraries” (Frontiers in Molecular Biosciences, 2022).)
